In patent publication US20190002436A1, “RESPIRATORY SYNCYTIAL VIRUS INHIBITORS” (MEDIVIR AB, priority 2015, published 2019):

Tested on: RSV (Long)
Assay: RSV cytopathic effect (CPE)-based viral replication assay
Assay type: cell-based, respiratory syncytial virus (RSV)
Conditions: HEp-2 cells infected with RSV Long at MOI 0.015; 3 days at 37° C.; cell viability by CellTiter-Glo luminescence; read-out: EC50 (nm)
How it was run: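 HEp-2 cells, 2,500 per well in DMEM with 2% heat-inactivated FBS, treated with 10-point compound dilutions and infected with RSV Long at MOI 0.015. After 3 days at 37 °C, 5% CO2, viability read by CellTiter-Glo luminescence; EC50 derived from CPE data.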

EC50 [nM] | SMILES
4.6 | O=C1N(Cc2ncc3ccccc3c2-c2ccc(F)nc2)c2ccccc2C12CC(NCCF)C2 (single isomer, unassigned) [Example 87-2, 3-((2-fluoroethyl)amino)-1′-((4-(6-fluoropyridin-3-yl)isoquinolin-3-yl)methyl)spiro[cyclobutane-1,3′-indolin]-2′-one]
5.7 | CS(=O)(=O)N1CC2(C1)C(=O)N(Cc1ncc3ccccc3c1CF)c1ccccc12 [Example 59]

Same assay, conditions: human respiratory syncytial virus, HEp-2, 72 h, HEp-2 cells infected with RSV Long at MOI 0.015; 3 days at 37° C.; cell viability by CellTiter-Glo luminescence; read-out: EC50 (nm)

EC50 [nM] | SMILES
2.5 | N#Cc1ccc(-c2c(CN3C(=O)C4(CCN(C(=O)OCCO)CC4)c4ccncc43)ncc3ccccc23)cn1 [Example 68, 2-hydroxyethyl 1′-((4-(6-cyanopyridin-3-yl)isoquinolin-3-yl)methyl)-2′-oxo-1′,2′-dihydrospiro[piperidine-4,3′-pyrrolo[2,3-c]pyridine]-1-carboxylate]
1.3 | CS(=O)(=O)N1CCC2(CC1)C(=O)N(Cc1ncc3cc(Cl)ccc3c1-c1cncs1)c1ccccc12 [Example 169b, 1-((7-chloro-4-(thiazol-5-yl)isoquinolin-3-yl)methyl)-1′-(methylsulfonyl)spiro[indoline-3,4′-piperidin]-2-one]
240 | O=c1n(Cc2ncc3ccccc3c2-c2cccc(CO)c2)c2cnccc2n1C1CC1 [Example 10, 1-Cyclopropyl-3-((4-(3-(hydroxymethyl)phenyl)isoquinolin-3-yl)methyl)-1H-imidazo[4,5-c]pyridin-2(3H)-one]
6.6 | NCCC(=O)N1CC2(C1)C(=O)N(Cc1ncc3ccccc3c1-c1cccnc1)c1ccccc12 [Example 150, 1-(3-Aminopropanoyl)-1′-((4-(pyridin-3-yl)isoquinolin-3-yl)methyl)spiro[azetidine-3,3′-indolin]-2′-one]
1.8 | COC(=O)N1CCC2(CC1)C(=O)N(Cc1ncc3cc(Cl)ccc3c1-c1ccncc1)c1cnccc12 [Example 165b, Methyl 1′-((7-chloro-4-(pyridin-4-yl)isoquinolin-3-yl)methyl)-2′-oxo-1′,2′-dihydrospiro[piperidine-4,3′-pyrrolo[2,3-c]pyridine]-1-carboxylate]
11 | COC(=O)N1CCC(n2c(=O)n(Cc3ncc4cc(F)ccc4c3CCCCO)c3cnccc32)CC1 [Example 7b, Methyl 4-(3-((7-fluoro-4-(4-hydroxybutyl)isoquinolin-3-yl)methyl)-2-oxo-2,3-dihydro-1H-imidazo[4,5-c]pyridin-1-yl)piperidine-1-carboxylate]
2.4 | O=C(OC1CC1)N1CCC(n2c(=O)n(Cc3ncc4ccccc4c3CCCCO)c3cnccc32)CC1 [Example 35, cyclopropyl 4-(3-((4-(4-hydroxybutyl)isoquinolin-3-yl)methyl)-2-oxo-2,3-dihydro-1H-imidazo[4,5-c]pyridin-1-yl)piperidine-1-carboxylate]
1000 | COC(=O)N1CC2(C1)C(=O)N(Cc1nc(C(F)F)c3ccccc3c1-c1cccnc1)c1ccccc12 [Example 2003]
13 | NC1(CC(=O)N2CC3(C2)C(=O)N(Cc2ncc4ccccc4c2-c2cccnc2)c2ccccc23)CC1 [Example 156, 1-(2-(1-aminocyclopropyl)acetyl)-1′-((4-(pyridin-3-yl)isoquinolin-3-yl)methyl)spiro[azetidine-3,3′-indolin]-2′-one]
13 | O=c1n(Cc2ncc3ccccc3c2CCCCO)c2cnccc2n1C1CC1 [Example 1c, 1-cyclopropyl-3-((4-(4-hydroxybutyl)isoquinolin-3-yl)methyl)-1H-imidazo[4,5-c]pyridin-2(3H)-one]
2.7 | NCCCC(=O)N1CC2(C1)C(=O)N(Cc1ncc3ccccc3c1-c1cccnc1)c1ccccc12 [Example 151, 1-(4-Aminobutanoyl)-1′-((4-(pyridin-3-yl)isoquinolin-3-yl)methyl)spiro[azetidine-3,3′-indolin]-2′-one]
1.6 | COC(=O)N1CCC2(CC1)C(=O)N(Cc1ncc3cc(Cl)ccc3c1-c1cccnc1)c1cnccc12 [Example 164, Methyl 1′-((7-chloro-4-(pyridin-3-yl)isoquinolin-3-yl)methyl)-2′-oxo-1′,2′-dihydrospiro[piperidine-4,3′-pyrrolo[2,3-c]pyridine]-1-carboxylate]
380 | NC1(C(=O)N2CCC3(CC2)C(=O)N(Cc2ncc4ccccc4c2-c2nccs2)c2cnccc23)CC1 [Example 2012]
5.8 | CS(=O)(=O)c1ccc(-c2c(Cn3c(=O)n(C4CC4)c4ccncc43)ncc3ccccc23)cc1 [Example 69d, 1-cyclopropyl-3-((4-(4-(methylsulfonyl)phenyl)isoquinolin-3-yl)methyl)-1H-imidazo[4,5-c]pyridin-2(3H)-one]
7.1 | CS(=O)(=O)N1CC2(C1)C(=O)N(Cc1ncc3ccccc3c1-c1ccc(F)c(F)c1)c1ccccc12 [Example 75]
7.2 | O=C1N(Cc2ncc3ccccc3c2-c2cccnc2)c2cnccc2C12CCN(S(=O)(=O)CC(F)(F)F)CC2 [Example 139, 1′-((4-(pyridin-3-yl)isoquinolin-3-yl)methyl)-1-((2,2,2-trifluoroethyl)sulfonyl)spiro[piperidine-4,3′-pyrrolo[2,3-c]pyridin]-2′(1′H)-one]
1000 | Cc1noc(C)c1-c1c(CN2C(=O)C3(CCN(C(=O)C4(N)CC4)CC3)c3ccncc32)ncc2ccccc12 [Example 130c, 1-(1-Aminocyclopropanecarbonyl)-1′-((4-(3,5-dimethylisoxazol-4-yl)isoquinolin-3-yl)methyl)spiro[piperidine-4,3′-pyrrolo[2,3-c]pyridin]-2′(1′H)-one]

EC50 [nM] | SMILES
4 | COC(=O)N1CCC(n2c(=O)n(Cc3ncc4ccccc4c3CCCC(F)(F)F)c3cnccc32)CC1 [Example 9b, methyl 4-(2-oxo-3-((4-(4,4,4-trifluorobutyl)isoquinolin-3-yl)methyl)-2,3-dihydro-1H-imidazo[4,5-c]pyridin-1-yl)piperidine-1-carboxylate]
8.2 | NC1(C(=O)N2CCC3(CC2)C(=O)N(Cc2ncc4ccccc4c2-c2cncs2)c2cnccc23)CC1 [Example 2024]
1.6 | NC(=O)N1CC2(C1)C(=O)N(Cc1ncc3ccccc3c1-c1cccnc1)c1ccccc12 [Example 131, 2′-Oxo-1′-((4-(pyridin-3-yl)isoquinolin-3-yl)methyl)spiro[azetidine-3,3′-indoline]-1-carboxamide]
1.4 | CS(=O)(=O)N1CC2(C1)C(=O)N(Cc1ncc3ccccc3c1-c1cccnc1)c1ccccc12 [Example 154, 1-(Methylsulfonyl)-1′-((4-(pyridin-3-yl)isoquinolin-3-yl)methyl)spiro[azetidine-3,3′-indolin]-2′-one]
6.4 | N#Cc1ccc(-c2c(CN3C(=O)C4(CCN(C(=O)C5(N)CC5)CC4)c4ccncc43)ncc3ccccc23)cn1 [Example 65, 5-(3-((1-(1-aminocyclopropanecarbonyl)-2′-oxospiro[piperidine-4,3′-pyrrolo[2,3-c]pyridin]-1′(2′H)-yl)methyl)isoquinolin-4-yl)picolinonitrile]
4.8 | CS(=O)(=O)N1CC2(C1)C(=O)N(Cc1ncc3cc(Cl)ccc3c1-c1cccnc1)c1cnccc12 [Example 162, 1′-((7-chloro-4-(pyridin-3-yl)isoquinolin-3-yl)methyl)-1-(methylsulfonyl)spiro[azetidine-3,3′-pyrrolo[2,3-c]pyridin]-2′(1′H)-one]
4.4 | CC1(S(=O)(=O)N2CC3(C2)C(=O)N(Cc2ncc4ccccc4c2-c2ccc(C#N)nc2)c2ccccc23)CC1 [Example 61]
17 | COC(=O)c1ccc(-c2c(CN3C(=O)C4(CCN(C(=O)C5(N)CC5)CC4)c4ccncc43)ncc3ccccc23)cn1 [Example 50c, Methyl 5-(3-((1-(1-aminocyclopropanecarbonyl)-2′-oxospiro[piperidine-4,3′-pyrrolo[2,3-c]pyridin]-1′(2′H)-yl)methyl)isoquinolin-4-yl)picolinate]
18 | NC1(C(=O)N2CC3(C2)C(=O)N(Cc2ncc4ccccc4c2-c2cccnc2)c2ccccc23)CC1 [Example 147, 1-(1-aminocyclopropanecarbonyl)-1′-((4-(pyridin-3-yl)isoquinolin-3-yl)methyl)spiro[azetidine-3,3′-indolin]-2′-one]
194 | COC(=O)N1CC2(C1)C(=O)N(Cc1ncc3ccccc3c1-c1ccccn1)c1ccccc12 [Example 102, Methyl 2′-oxo-1′-((4-(pyridin-2-yl)isoquinolin-3-yl)methyl)spiro[azetidine-3,3′-indoline]-1-carboxylate]
0.67 | COC(=O)N1CC2(C1)C(=O)N(Cc1ncc3ccccc3c1-c1cccnc1)c1ccccc12 [Example 92b, Methyl 2′-oxo-1′-((4-(pyridin-3-yl)isoquinolin-3-yl)methyl)spiro[azetidine-3,3′-indoline]-1-carboxylate]
40 | NC1(C(=O)N2CCC3(CC2)C(=O)N(Cc2ncc4ccccc4c2-c2cnco2)c2cnccc23)CC1 [Example 2043]
1.9 | NC(C(=O)N1CCC2(CC1)C(=O)N(Cc1ncc3ccccc3c1-c1cncs1)c1cnccc12)C(F)(F)F (centres unmarked) [Example 2040]
8.5 | O=c1n(Cc2ncc3ccccc3c2-c2ccc(O)nc2)c2ccccc2n1C1CC1 [Example 88, 1-Cyclopropyl-3-((4-(6-hydroxypyridin-3-yl)isoquinolin-3-yl)methyl)-1H-benzo[d]imidazol-2(3H)-one]
2.8 | CC(=O)N1CCC2(CC1)C(=O)N(Cc1ncc3ccccc3c1-c1cccnc1)c1cnccc12 [Example 146b, 1-Acetyl-1′-((4-(pyridin-3-yl)isoquinolin-3-yl)methyl)spiro[piperidine-4,3′-pyrrolo[2,3-c]pyridin]-2′(1′H)-one]
0.9 | CS(=O)(=O)N1CC2(C1)C(=O)N(Cc1ncc3ccccc3c1-c1ccc(F)nc1)c1ccccc12 [Example 78]
